In ChEMBL document CHEMBL1131152, “In vitro and in vivo activities of oligodeoxynucleotide-based thrombin inhibitors containing neutral formacetal linkages” (J Med Chem, 1998) one finds Relative PT data, which are given here for three compounds.

The assay concerns the target Prothrombin (Homo sapiens) (UniProt P00734). Briefly: Relative prothrombin time was determined as the activity of the test ODN (oligodeoxynucleotide) relative to that of GS-522.

Compound `Cc1cn([C@H]2C[C@H](OP(=O)(O)OC[C@H]3O[C@@H](n4cnc5c(=O)nc(N)[nH]c54)C[C@@H]3OCOC[C@H]3O[C@@H](n4cnc5c(=O)[nH]c(=N)[nH]c54)C[C@@H]3OP(=O)(O)OC[C@H]3O[C@@H](n4cc(C)c(=O)[nH]c4=O)C[C@@H]3OP(=O)(O)OC[C@H]3O[C@@H](n4cnc5c(=O)nc(N)[nH]c54)C[C@@H]3OP(=O)(O)OC[C@H]3O[C@@H](n4cc(C)c(=O)[nH]c4=O)C[C@@H]3OP(=O)(O)OC[C@H]3O[C@@H](n4cnc5c(=O)nc(N)[nH]c54)C[C@@H]3OP(=O)(O)OC[C@H]3O[C@@H](n4cnc5c(=O)[nH]c(=N)[nH]c54)C[C@@H]3OP(=O)(O)OC[C@H]3O[C@@H](n4cc(C)c(=O)[nH]c4=O)C[C@@H]3OP(=O)(O)OC[C@H]3O[C@@H](n4cc(C)c(=O)[nH]c4=O)C[C@@H]3OP(=O)(O)OC[C@H]3O[C@@H](n4cnc5c(=O)[nH]c(=N)[nH]c54)C[C@@H]3OP(=O)(O)OC[C@H]3O[C@@H](n4cnc5c(=O)nc(N)[nH]c54)C[C@@H]3O)[C@@H](COP(=O)(O)O[C@H]3C[C@H](n4cc(C)c(=O)[nH]c4=O)O[C@@H]3COP(=O)(O)O[C@H]3C[C@H](n4cnc5c(=O)[nH]c(=N)[nH]c54)O[C@@H]3COP(=O)(O)O[C@H]3C[C@H](n4cnc5c(=O)nc(N)[nH]c54)O[C@@H]3COP(=O)(O)O)O2)c(=O)[nH]c1=O` came in with a Relative PT of 0.8.
As for `Cc1cn([C@H]2C[C@H](OCOC[C@H]3O[C@@H](n4cnc5c(=O)nc(N)[nH]c54)C[C@@H]3OP(=O)(O)OC[C@H]3O[C@@H](n4cnc5c(=O)[nH]c(=N)[nH]c54)C[C@@H]3OP(=O)(O)OC[C@H]3O[C@@H](n4cc(C)c(=O)[nH]c4=O)C[C@@H]3OCOC[C@H]3O[C@@H](n4cnc5c(=O)[nH]c(=N)[nH]c54)C[C@@H]3OP(=O)(O)OC[C@H]3O[C@@H](n4cc(C)c(=O)[nH]c4=O)C[C@@H]3OP(=O)(O)OC[C@H]3O[C@@H](n4cnc5c(=O)nc(N)[nH]c54)C[C@@H]3OP(=O)(O)OC[C@H]3O[C@@H](n4cnc5c(=O)[nH]c(=N)[nH]c54)C[C@@H]3OP(=O)(O)OC[C@H]3O[C@@H](n4cc(C)c(=O)[nH]c4=O)C[C@@H]3OP(=O)(O)OC[C@H]3O[C@@H](n4cc(C)c(=O)[nH]c4=O)C[C@@H]3OP(=O)(O)OC[C@H]3O[C@@H](n4cnc5c(=O)[nH]c(=N)[nH]c54)C[C@@H]3OP(=O)(O)OC[C@H]3O[C@@H](n4cnc5c(=O)nc(N)[nH]c54)C[C@@H]3O)[C@@H](COP(=O)(O)O[C@H]3C[C@H](n4cc(C)c(=O)[nH]c4=O)O[C@@H]3COP(=O)(O)O[C@H]3C[C@H](n4cnc5c(=O)[nH]c(=N)[nH]c54)O[C@@H]3COP(=O)(O)O[C@H]3C[C@H](n4cnc5c(=O)[nH]c(=N)[nH]c54)O[C@@H]3COP(=O)(O)O)O2)c(=O)[nH]c1=O`, the figure is 0.3; as for `Cc1cn([C@H]2C[C@H](OP(=O)(O)OC[C@H]3O[C@@H](n4cnc5c(=O)nc(N)[nH]c54)C[C@@H]3OP(=O)(O)OC[C@H]3O[C@@H](n4cnc5c(=O)[nH]c(=N)[nH]c54)C[C@@H]3OP(=O)(O)OC[C@H]3O[C@@H](n4cc(C)c(=O)[nH]c4=O)C[C@@H]3OP(=O)(O)OC[C@H]3O[C@@H](n4cnc5c(=O)[nH]c(=N)[nH]c54)C[C@@H]3OP(=O)(O)OC[C@H]3O[C@@H](n4cc(C)c(=O)[nH]c4=O)C[C@@H]3OP(=O)(O)OC[C@H]3O[C@@H](n4cnc5c(=O)nc(N)[nH]c54)C[C@@H]3OCOC[C@H]3O[C@@H](n4cnc5c(=O)[nH]c(=N)[nH]c54)C[C@@H]3OP(=O)(O)OC[C@H]3O[C@@H](n4cc(C)c(=O)[nH]c4=O)C[C@@H]3OP(=O)(O)OC[C@H]3O[C@@H](n4cc(C)c(=O)[nH]c4=O)C[C@@H]3OP(=O)(O)OC[C@H]3O[C@@H](n4cnc5c(=O)[nH]c(=N)[nH]c54)C[C@@H]3OCOC[C@H]3O[C@@H](n4cnc5c(=O)nc(N)[nH]c54)C[C@@H]3O)[C@@H](COP(=O)(O)O[C@H]3C[C@H](n4cc(C)c(=O)[nH]c4=O)O[C@@H]3COP(=O)(O)O[C@H]3C[C@H](n4cnc5c(=O)nc(N)[nH]c54)O[C@@H]3COP(=O)(O)O[C@H]3C[C@H](n4cnc5c(=O)[nH]c(=N)[nH]c54)O[C@@H]3COP(=O)(O)O)O2)c(=O)[nH]c1=O`, 0.8.
